Test system: KRAS PDC multicell spheroid viability
Assay: Anticancer human tumor 825966-067-R-J1-PDC patient-derived colon carcinoma cell line growth inhibition [KRAS2]
Conditions: for IC50: curve of first compound; for viability, T/C: stronger effect = lower value
In short: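 Combination screen of spheroid viability in tumor-cell co-cultures with endothelial (HUVEC) and mesenchymal stem cell stroma. Each agent was tested in half-log dilutions, topping at clinical Cmax or at 10 microM without a known Cmax.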

[1] = second compound 0.1 µM, first compound 0.000316 µM
[2] = second compound 0.1 µM, first compound 0.001 µM
[3] = second compound 0.1 µM, first compound 0.00316 µM
[4] = second compound 0.1 µM, first compound 0.01 µM
[5] = second compound 0.1 µM, first compound 0.0316 µM
[6] = second compound 0.1 µM, first compound 0.1 µM
[7] = second compound 0.316 µM, first compound 0.000316 µM
[8] = second compound 0.316 µM, first compound 0.001 µM
[9] = second compound 0.316 µM, first compound 0.00316 µM
[10] = second compound 0.316 µM, first compound 0.01 µM
[11] = second compound 0.316 µM, first compound 0.0316 µM
[12] = second compound 0.316 µM, first compound 0.1 µM
[13] = second compound 1 µM, first compound 0.000316 µM
[14] = second compound 1 µM, first compound 0.001 µM
[15] = second compound 1 µM, first compound 0.00316 µM
[16] = second compound 1 µM, first compound 0.01 µM
[17] = second compound 1 µM, first compound 0.0316 µM
[18] = second compound 1 µM, first compound 0.1 µM
[19] = second compound 3.16 µM, first compound 0.000316 µM
[20] = second compound 3.16 µM, first compound 0.001 µM
[21] = second compound 3.16 µM, first compound 0.00316 µM
[22] = second compound 3.16 µM, first compound 0.01 µM
[23] = second compound 3.16 µM, first compound 0.0316 µM
[24] = second compound 3.16 µM, first compound 0.1 µM
[25] = second compound 10 µM, first compound 0.000316 µM
[26] = second compound 10 µM, first compound 0.001 µM
[27] = second compound 10 µM, first compound 0.00316 µM
[28] = second compound 10 µM, first compound 0.01 µM
[29] = second compound 10 µM, first compound 0.0316 µM
[30] = second compound 10 µM, first compound 0.1 µM
[31] = second compound 0.1 µM, first compound 0.316 µM
[32] = second compound 0.1 µM, first compound 1 µM
[33] = second compound 0.316 µM, first compound 0.316 µM
[34] = second compound 0.316 µM, first compound 1 µM
[35] = second compound 1 µM, first compound 0.316 µM
[36] = second compound 1 µM, first compound 1 µM
[37] = second compound 3.16 µM, first compound 0.316 µM
[38] = second compound 3.16 µM, first compound 1 µM
[39] = second compound 10 µM, first compound 0.316 µM
[40] = second compound 10 µM, first compound 1 µM
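Further: spheroids exposed to compounds for 7 days.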
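Wherever viability, T/C is given: 100% = DMSO vehicle control viability.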

| SMILES | IC50 (second compound 0.1 µM) [nM] | IC50 (second compound 0.316 µM) [nM] | IC50 (second compound 1 µM) [nM] | IC50 (second compound 3.16 µM) [nM] | IC50 (second compound 10 µM) [nM] | viability, T/C [3] [%] | viability, T/C [4] [%] | viability, T/C [5] [%] | viability, T/C [6] [%] | viability, T/C [9] [%] | viability, T/C [10] [%] | viability, T/C [11] [%] | viability, T/C [12] [%] | viability, T/C [15] [%] | viability, T/C [17] [%] | viability, T/C [18] [%] | viability, T/C [23] [%] | viability, T/C [24] [%] | viability, T/C [29] [%] | viability, T/C [30] [%] | also measured |
| --- | --- | --- | --- | --- | --- | --- | --- | --- | --- | --- | --- | --- | --- | --- | --- | --- | --- | --- | --- | --- | --- |
| Cn1ncnc1[C@H]1c2n[nH]c(=O)c3cc(F)cc(c23)N[C@@H]1c1ccc(F)cc1 + C=CC(=O)N1CCN(c2nc(=O)n(-c3c(C)ccnc3C(C)C)c3nc(-c4c(O)cccc4F)c(F)cc23)C(C)C1 | > 100 | > 100 | > 100 | > 100 | > 100 | 98.2 | 89.6 | 90.1 | 82.3 | 143 | 103 | 90.7 | 72.3 | 75.2 | 102 | 80.6 | 72 | 87.7 | 115 | 76.9 | viability, T/C [1]: 132%; viability, T/C [2]: 100%; viability, T/C [7]: 100%; viability, T/C [8]: 99.9%; viability, T/C [13]: 100%; viability, T/C [14]: 91.7%; viability, T/C [16]: 79.3%; viability, T/C [19]: 109%; viability, T/C [20]: 102%; viability, T/C [21]: 101%; viability, T/C [22]: 98.3%; viability, T/C [25]: 92.4%; viability, T/C [26]: 124%; viability, T/C [27]: 93.2%; viability, T/C [28]: 111% |
| Cn1ncnc1[C@H]1c2n[nH]c(=O)c3cc(F)cc(c23)N[C@@H]1c1ccc(F)cc1 + CC1OCC2(CCN(c3cnc(Sc4ccnc(N)c4Cl)c(N)n3)CC2)C1N | > 100 | > 100 | > 100 | > 100 | < 0.316 | 85.6 | 71.5 | 74.8 | 64.7 | 103 | 106 | 89.6 | 69.7 | 80 | 78.5 | 79.6 | 87.1 | 85 | 37.2 | 18.1 | viability, T/C [1]: 109%; viability, T/C [2]: 82%; viability, T/C [7]: 110%; viability, T/C [8]: 99.8%; viability, T/C [13]: 87%; viability, T/C [14]: 109%; viability, T/C [16]: 104%; viability, T/C [19]: 93.3%; viability, T/C [20]: 80.7%; viability, T/C [21]: 86.8%; viability, T/C [22]: 80%; viability, T/C [25]: 55.1%; viability, T/C [26]: 18.3%; viability, T/C [27]: 31.5%; viability, T/C [28]: 43.9% |
| COc1cc(Nc2ncc3c(n2)-c2ccc(Cl)cc2C(c2c(F)cccc2OC)=NC3)ccc1C(=O)O + COc1cc2nc(C)nc(NC(C)c3cc(N)cc(C(F)(F)F)c3)c2cc1OC1CCOC1 | > 10000 | > 10000 | > 10000 | > 10000 | < 31.6 |  |  | 124 | 93.5 |  |  | 105 | 123 |  | 87 | 155 | 52 | 127 | 3.07 | 1.62 | viability, T/C [31]: 144%; viability, T/C [32]: 171%; viability, T/C (second compound 0.1 µM, first compound 3.16 µM): 136%; viability, T/C (second compound 0.1 µM, first compound 10 µM): 130%; viability, T/C [33]: 144%; viability, T/C [34]: 140%; viability, T/C (second compound 0.316 µM, first compound 3.16 µM): 133%; viability, T/C (second compound 0.316 µM, first compound 10 µM): 145%; viability, T/C [35]: 156%; viability, T/C [36]: 137%; viability, T/C (second compound 1 µM, first compound 3.16 µM): 145%; viability, T/C (second compound 1 µM, first compound 10 µM): 118%; viability, T/C [37]: 81.3%; viability, T/C [38]: 110%; viability, T/C (second compound 3.16 µM, first compound 3.16 µM): 69.3%; viability, T/C (second compound 3.16 µM, first compound 10 µM): 112%; viability, T/C [39]: 0.85%; viability, T/C [40]: 2.07%; viability, T/C (second compound 10 µM, first compound 3.16 µM): 7.95%; viability, T/C (second compound 10 µM, first compound 10 µM): 1.44% |
| CCN1CCN(Cc2ccc(Nc3ncc(F)c(-c4cc(F)c5nc(C)n(C(C)C)c5c4)n3)nc2)CC1 + C=CC(=O)N1CCN(c2nc(=O)n(-c3c(C)ccnc3C(C)C)c3nc(-c4c(O)cccc4F)c(F)cc23)C(C)C1 | > 1000 | > 1000 | > 1000 | > 1000 | 743 | 90 | 107 | 101 | 96.3 | 80.8 | 85.9 | 112 | 118 | 87.3 | 102 | 114 | 126 | 121 | 100 | 143 | viability, T/C [31]: 143%; viability, T/C [32]: 119%; viability, T/C [33]: 153%; viability, T/C [34]: 111%; viability, T/C [16]: 84.8%; viability, T/C [35]: 163%; viability, T/C [36]: 83%; viability, T/C [21]: 89.5%; viability, T/C [22]: 92.4%; viability, T/C [37]: 155%; viability, T/C [38]: 76.8%; viability, T/C [27]: 104%; viability, T/C [28]: 102%; viability, T/C [39]: 117%; viability, T/C [40]: 27.9% |

Source: PubChem BioAssay AID1963865 (Molecular Pharmacology Branch, DTP, NCI, 2024)
